pIC50: −log10 of the molar value. Several values for one entry are separate records, joined by “and”; a condition that tells them apart may be missing. Equal entries are not always repeated. Values belong to the molecule of their own block, whether it stands above or below them.
System: 186277-243-T-J2-PDC multi-cell spheroid viability
Experiment: Anticancer human tumor 186277-243-T-J2-PDC patient-derived colon adenocarcinoma cell line growth inhibition [PI3K]
Details: for viability, T/C: stronger effect = lower value; for pIC50: curve of first compound
Summary of the method: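 Stroma-containing spheroids: tumor line, pooled-donor HUVEC, hMSC. Treatments: targeted agents with PI3K inhibitors. Dosing: clinically relevant, half-log spacing, 10 microM ceiling without known Cmax. Read-out: cell viability.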
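Also: spheroids exposed to compounds for seven days before viability reading.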
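For viability, T/C in this document: 100% = DMSO vehicle control viability.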

IC50 (curve of compound): 1.99 µM [middle of 4 runs]
SMILES: CC(C)NCC(C(=O)N1CCN(c2ncnc3c2C(C)CC3O)CC1)c1ccc(Cl)cc1 (centres undefined)
viability, T/C (compound 0.0316 µM): 93.8% [middle of 4 runs]
viability, T/C (compound 0.1 µM): 88.2% [middle of 4 runs]
viability, T/C (compound 0.316 µM): 77.6% [middle of 4 runs]
viability, T/C (compound 1 µM): 55.6% [middle of 4 runs]
viability, T/C (compound 3.16 µM): 45.9% [middle of 4 runs]
viability, T/C (compound 10 µM): 28.2% (2×) and 31.3% and 28.7%

pIC50 (second compound 0.0316 µM): < 6.00
pIC50 (second compound 0.1 µM): < 6.00
pIC50 (second compound 0.316 µM): < 6.00
pIC50 (second compound 1 µM): < 6.00
pIC50 (second compound 3.16 µM): < 6.00
pIC50 (second compound 10 µM): < 6.00
SMILES: CCN1CCN(Cc2ccc(Nc3ncc(F)c(-c4cc(F)c5nc(C)n(C(C)C)c5c4)n3)nc2)CC1 + CC(Nc1ncnc2nc[nH]c12)c1cc2cccc(Cl)c2c(=O)n1-c1ccccc1
viability, T/C (second compound 0.0316 µM, first compound 0.00316 µM): 94.6%
viability, T/C (second compound 0.0316 µM, first compound 0.01 µM): 85.9%
viability, T/C (second compound 0.0316 µM, first compound 0.0316 µM): 104%
viability, T/C (second compound 0.0316 µM, first compound 0.1 µM): 108%
viability, T/C (second compound 0.0316 µM, first compound 0.316 µM): 166%
viability, T/C (second compound 0.0316 µM, first compound 1 µM): 160%
viability, T/C (second compound 0.1 µM, first compound 0.00316 µM): 98.9%
viability, T/C (second compound 0.1 µM, first compound 0.01 µM): 84%
viability, T/C (second compound 0.1 µM, first compound 0.0316 µM): 103%
viability, T/C (second compound 0.1 µM, first compound 0.1 µM): 120%
viability, T/C (second compound 0.1 µM, first compound 0.316 µM): 148%
viability, T/C (second compound 0.1 µM, first compound 1 µM): 148%
viability, T/C (second compound 0.316 µM, first compound 0.00316 µM): 93.5%
viability, T/C (second compound 0.316 µM, first compound 0.01 µM): 97.6%
viability, T/C (second compound 0.316 µM, first compound 0.0316 µM): 100%
viability, T/C (second compound 0.316 µM, first compound 0.1 µM): 124%
viability, T/C (second compound 0.316 µM, first compound 0.316 µM): 136%
viability, T/C (second compound 0.316 µM, first compound 1 µM): 143%
viability, T/C (second compound 1 µM, first compound 0.00316 µM): 104%
viability, T/C (second compound 1 µM, first compound 0.01 µM): 99.4%
viability, T/C (second compound 1 µM, first compound 0.0316 µM): 104%
viability, T/C (second compound 1 µM, first compound 0.1 µM): 120%
viability, T/C (second compound 1 µM, first compound 0.316 µM): 155%
viability, T/C (second compound 1 µM, first compound 1 µM): 129%
viability, T/C (second compound 3.16 µM, first compound 0.00316 µM): 102%
viability, T/C (second compound 3.16 µM, first compound 0.01 µM): 107%
viability, T/C (second compound 3.16 µM, first compound 0.0316 µM): 100%
viability, T/C (second compound 3.16 µM, first compound 0.1 µM): 119%
viability, T/C (second compound 3.16 µM, first compound 0.316 µM): 124%
viability, T/C (second compound 3.16 µM, first compound 1 µM): 108%
viability, T/C (second compound 10 µM, first compound 0.00316 µM): 78.3%
viability, T/C (second compound 10 µM, first compound 0.01 µM): 88%
viability, T/C (second compound 10 µM, first compound 0.0316 µM): 95.9%
viability, T/C (second compound 10 µM, first compound 0.1 µM): 97.7%
viability, T/C (second compound 10 µM, first compound 0.316 µM): 102%
viability, T/C (second compound 10 µM, first compound 1 µM): 78.3%
